According to US11407717B2, “Benzimidazole derivatives and use thereof as IDH1 inhibitors” (KPC PHARMACEUTICALS, INC., priority 2018, dated 2022):
Like-named read-outs stand apart in the source and are kept apart here. Each block holds one compound with its values, some of them ahead of it.

Assays:
[1] = biological target: IDH1(R132H) (Homo sapiens, UniProt O75874, R132H); assay: IDH1 in vitro enzyme activity test (IDH1 R132H); type: biochemical; details: 1500 μM α-KG + 15 μM NADPH
Protocol: (§1) The IDH1 mutant catalyzes the NADPH-dependent reduction of α-KG (α-ketoglutarate) to 2-HG (2-hydroxyglutarate), and the consumed NADPH can be read by fluorescence.
(§2) Basic reaction buffer: 50 mM KH2PO4, pH 7.5, 10 mM MgCl2, 10% glycerol, 150 mM NaCl, 0.05% BSA (bovine serum albumin), 2 mM b-ME (2-mercaptoethanol), 0.003% Brij35 (polyethylene glycol lauryl ether)
(§3) Substrates and cofactors: • IDH1 wt (wild type): 65 μM isocitrate+50 μM NADP • IDH1(R132H): 1500 μM α-KG+15 μM NADPH • IDH1(R132C): 500 μM α-KG+15 μM NADPH
(§4) 1.33× enzyme (no enzyme in the control well), buffer, and NADP or NADPH (control well) were added into the wells of the reaction plate. The test compound was dissolved in 100% DMSO and then added to the enzyme mixture (Echo550, nanoliter level), and incubated for 60 minutes after simple centrifugation. A mixture of 4× substrate and cofactor were added to start the reaction. After simple centrifugation, the plate was incubated under shaking at room temperature for 45 minutes. A mixture of 3× lipoamide dehydrogenase and Resazurin was prepared, added to the reaction solution to test the amount of NADPH generated or remaining, and incubated at room temperature for 10 minutes after simple centrifugation. Multifunctional microplate reader Envision was used to measure (Ex/Em=535/590 nm).

[2] = biological target: IDH1(R132C) (Homo sapiens, UniProt O75874, R132C); assay: IDH1 in vitro enzyme activity test (IDH1 R132C); type: biochemical; details: 500 μM α-KG + 15 μM NADPH
Protocol: as §1, §2, §3, §4

[3] = biological target: IDH1 wt (wild type) (Homo sapiens, UniProt O75874); assay: IDH1 in vitro enzyme activity test (IDH1 wild type); type: biochemical; details: 65 μM isocitrate + 50 μM NADP
Protocol: as §1, §2, §3, §4

[4] = test system: U87MG-IDH1-R132H cell strain; assay: IDH1 cytological activity test, 2HG content in cell culture supernatant by LC-MS; type: cell-based; details: Homo sapiens, U-87 MG, 72 h; 2-HG in supernatant, 3 days incubation
Protocol: In this study, the compound was incubated with the IDH1 mutant cell line, and the 2HG content in the cell culture supernatant was detected by LC-MS to determine the inhibitory activity of the compound on the IDH1 mutant. IDH1 catalyzes the […] of isocitrate to α-ketoglutarate (α-KG) in organisms, and the IDH1 mutant further catalyzes the reduction of α-KG to 2-hydroxyglutarate (2HG). The U87MG-IDH1-R132H cell strain is a stable transfected cell strain that can stably express IDH1-R132H mutant, obtained via screening by transfecting U87MG cells with IDH1-R132H, and the HT1080 cell strain contains an endogenous IDH1-R132C mutant. 1) The compound was diluted 3-fold with DMSO and then added to the cell culture plate, at a total of 10 concentrations, double duplicate holes for each concentration. The negative control well contains only DMSO, and the positive control well contained BAY1436032 at a final concentration of 5 μM. The final concentration of DMSO in all wells was 0.5%. 2) The IDH1 mutant cell line was seeded into a cell culture plate containing the compound at a density of 40,000 cells/well. The cells were incubated with the compound in a incubator at 37° C., 5% CO2 for 3 days. […]

[5] = Evaluation of pharmacokinetics in mice; type: in vivo, CD-1 mice; details: for AUC(0-t): read-out: Area under curve AUC0-last
Protocol: 1) Experimental drug: Example 6;
2) Experimental animals: 8 male CD-1 mice aged 7-10 weeks, divided into 2 groups, 4 in each group;
3) Drug preparation: for the tail vein injection group, an appropriate amount of the drug was weighted, and dissolved in a mixed solvent of DMSO: 20% hydroxypropyl betacyclodextrin (HPbCD)=10:90 to prepare a 0.5 mg/mL solution; for the intragastric administration group, an appropriate amount of the drug was weighted, and dissolved in DMSO: polyoxyethylene castor oil EL (Cremophor EL):5% sulfobutyl cyclodextrin (Captisol)=5:10:85 to prepare a suspension.
Animals in group 1 were given a single injection of the drug at a dose of 1 mg/kg and a concentration of 0.5 mg/mL via tail vein, and animals in group 2 were given a compound at a dose of 20 mg/kg and a concentration of 2 mg/mL via gavage. Plasma samples were cross-collected from the animals at 0.0833 (tail vein injection group only), 0.25, 0.5, 1, 2, 4, 6, 8 and 24 hours after administration. The LC-MS/MS method was used to determine the drug concentration in the plasma sample, and the kinetic parameters of the tested drug are shown in Table 4: […]

IDH1(R132H), sequence (O75874 whole entry R132H): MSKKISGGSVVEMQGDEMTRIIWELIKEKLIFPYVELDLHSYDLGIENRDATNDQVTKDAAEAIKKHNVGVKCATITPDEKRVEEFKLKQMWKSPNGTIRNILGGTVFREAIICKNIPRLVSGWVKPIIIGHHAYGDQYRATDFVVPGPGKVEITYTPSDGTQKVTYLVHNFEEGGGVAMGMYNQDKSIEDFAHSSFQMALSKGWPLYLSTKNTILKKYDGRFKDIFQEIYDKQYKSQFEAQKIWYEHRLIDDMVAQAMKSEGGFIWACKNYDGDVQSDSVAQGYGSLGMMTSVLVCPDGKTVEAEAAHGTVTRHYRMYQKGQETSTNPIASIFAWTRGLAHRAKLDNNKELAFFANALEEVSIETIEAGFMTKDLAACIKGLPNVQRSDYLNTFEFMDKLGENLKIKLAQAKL
IDH1(R132C), sequence (O75874 whole entry R132C): as the sequence (O75874 whole entry R132H) above, with H132C counted along it
IDH1 wt (wild type), sequence (O75874 whole entry): as the sequence (O75874 whole entry R132H) above, with H132R counted along it

SMILES: C[C@@H](c1ccccc1)n1c(Nc2ccc(OC(F)(F)F)cc2)nc2cc(CCC(=O)O)ccc21 [Example 2]
- IC50 [1]: 464 nM

SMILES: C[C@H](c1ccc(F)cc1)n1c(Nc2ccc(OC(F)(F)F)cc2)nc2cc(CCC(=O)O)ccc21 [Example 4]
- IC50 [1]: 126 nM

SMILES: CC[C@H](c1ccccc1)n1c(Nc2ccc(OC(F)(F)F)cc2)nc2cc(CCC(=O)O)ccc21 [Example 5]
- IC50 [1]: 89.5 nM

SMILES: C[C@H](c1cccc(Cl)c1)n1c(Nc2ccc(OC(F)(F)F)cc2)nc2cc(CCC(=O)O)ccc21 [Example 7]
- IC50 [1]: 121 nM

SMILES: O=C(O)CCc1ccc2c(c1)nc(Nc1ccc(OC(F)(F)F)cc1)n2C(c1ccccc1)c1ccccc1 [Example 9]
- IC50 [1]: 21.9 nM

SMILES: COc1ccccc1[C@@H](C)n1c(Nc2ccc(OC(F)(F)F)cc2)nc2cc(CCC(=O)O)ccc21 [Example 10]
- IC50 [1]: 344 nM

SMILES: O=C(O)CCc1ccc2c(c1)nc(Nc1ccc(OC(F)(F)F)cc1)n2[C@@H](c1ccccc1)C1CC1 [Example 12]
- IC50 [1]: 15.7 nM

The remaining compounds from weak to strong by IC50 [1], led by results:

- IC50 [1]: 320 nM
SMILES: C[C@H](c1ccc(Cl)cc1)n1c(Nc2ccc(OC(F)(F)F)cc2)nc2cc(CCC(=O)O)ccc21 [Example 3]

- IC50 [1]: 24.5 nM
SMILES: CC(C)(C)[C@H](c1ccccc1)n1c(Nc2ccc(OC(F)(F)F)cc2)nc2cc(CCC(=O)O)ccc21 [Example 11]

- IC50 [1]: 7.9 nM
- IC50 [2]: 102 nM
- IC50 [3]: > 10000 nM
- IC50 [4]: 92.8 nM
SMILES: C[C@H](c1ccccc1)n1c(Nc2ccc(OC(F)(F)F)cc2)nc2cc(CCC(=O)O)ccc21 [Example 1]

- IC50 [1]: 3.94 nM
- IC50 [2]: 12.8 nM
- IC50 [3]: > 10000 nM
- IC50 [4]: 38.2 nM
- pharmacokinetic properties in mice (in words) ([5]; mice): good pharmacokinetic properties
- AUC(0-t) ([5]; mouse, iv, male CD-1 mice, tail vein injection, 1 mg/kg, plasma): 15.5 µM·h
- C0 ([5]; mouse, iv, male CD-1 mice, tail vein injection, 1 mg/kg, plasma, read-out: Initial concentration C0): 3.54 µM
- clearance ([5]; mouse, plasma, iv, male CD-1 mice, tail vein injection, 1 mg/kg, read-out: Clearance Cl): 2.17 mL/min/kg
- half-life ([5]; mouse, plasma, iv, male CD-1 mice, tail vein injection, 1 mg/kg, read-out: Half-life T1/2 (converted)): 2.9 h
- Vd ([5]; mouse, plasma, iv, male CD-1 mice, tail vein injection, 1 mg/kg, read-out: Volume of distribution Vd): 0.69 L/kg
- bioavailability ([5]; mouse, plasma, po, male CD-1 mice, intragastric 20 mg/kg vs tail vein 1 mg/kg, read-out: Bioavailability F): 99.1%
- Tmax ([5]; mouse, plasma, po, male CD-1 mice, intragastric administration, 20 mg/kg, read-out: Time of highest concentration T1/2 (converted)): 1 h
- AUC(0-t) ([5]; mouse, po, male CD-1 mice, intragastric administration, 20 mg/kg, plasma): 307 µM·h
- Cmax ([5]; mouse, po, male CD-1 mice, intragastric administration, 20 mg/kg, plasma, read-out: Highest concentration Cmax): 33.4 µM
SMILES: O=C(O)CCc1ccc2c(c1)nc(Nc1ccc(OC(F)(F)F)cc1)n2[C@@H]1CCCc2ccccc21 [Example 6]

- IC50 [1]: 2.88 nM
SMILES: O=C(O)CCc1ccc2c(c1)nc(Nc1ccc(OC(F)(F)F)cc1)n2[C@@H]1CCc2ccccc21 [Example 8]
